# Several values for one entry are separate records, joined by “and”; a condition that tells them apart may be missing. Equal values may be shown once. Read-outs that look alike come from different tables or passages of the source.
# Tested on: P. falciparum oocyst formation in Anopheles stephensi mosquitoes
# Experiment: P. falciparum oocyst inhibition assay (SMFA)
# Assay type: in vivo, Plasmodium falciparum
# Settings: for Median (oocysts) / Prevalence % / Median I % / Prevalence I %: pooled from two representative experiments; for oocyst formation inhibition: midguts dissected 8 days after feeding
# Description: As previously described, P. falciparum infections were performed using SMFA with NF54 gametocyte cultures diluted to 0.3% stage V gametocytemia ([62]). Infected blood (O+ human 45% hematocrit in serum) was offered to mosquitoes for 30 minutes, and engorged mosquitoes were maintained on a 10% corn syrup solution supplemented by four concentrations of CB compounds (1, 2.5, 5, and 10 µM) at […] ([63]), with DMSO serving as a control. Eight days post-infection, mosquito midguts were dissected and stained with 0.2% mercurochrome for 30 minutes, and oocysts were quantified under a light microscope ([63]).
# [1] = 1 μM compound, P. falciparum midgut infection in An. stephensi mosquitoes
# [2] = 1 μM compound, infection prevalence in mosquitoes
# [3] = 1 μM, single experiments, read-out: % inhibition (mean)
# [4] = 1 μM, single experiments, read-out: % inhibition (median)
# [5] = 2.5 μM compound, P. falciparum midgut infection in An. stephensi mosquitoes
# [6] = 2.5 μM compound, infection prevalence in mosquitoes
# [7] = 5 μM compound, P. falciparum midgut infection in An. stephensi mosquitoes
# [8] = 5 μM compound, infection prevalence in mosquitoes
# [9] = 5 μM, single experiments, read-out: % inhibition (mean)
# [10] = 5 μM, single experiments, read-out: % inhibition (median)
# [11] = 10 μM compound, P. falciparum midgut infection in An. stephensi mosquitoes
# [12] = 10 μM compound, infection prevalence in mosquitoes
# [13] = 10 μM compound, oocyst number vs DMSO control, read-out: % inhibition (mean)
# [14] = 10 μM compound, vs DMSO control, read-out: % inhibition (prevalence)
# [15] = 10 μM, single experiments, read-out: % inhibition (mean)
# [16] = 10 μM, single experiments, read-out: % inhibition (prevalence)
# [17] = 2.5 μM, single experiments, read-out: % inhibition (mean)
# [18] = 2.5 μM, single experiments, read-out: % inhibition (median)
structure (smiles),measurement,setting,value
COc1cccc(/C=N/NC(=O)c2cc(-c3ccccc3)nc3ccccc23)c1O [CB-58],Median oocyst #,1 μM compound,6
same,Mean oocyst # excluding zeros (Range),[1],19 (0-95)
same,Prevalence,[2],76
same,Median (oocysts),1 µM,6
same,Prevalence %,1 µM,75%
same,% inhibition (prevalence),"1 μM, single experiments",1%
same,Prevalence,"1 μM, single experiments",69 and 82 and 83
same,inhibition at 1 µM,[3],5%
same,inhibition at 1 µM,[4],23%
same,Median oocyst #,2.5 μM compound,7
same,Mean oocyst # excluding zeros (Range),[5],26 (0-103)
same,Prevalence,[6],72
same,Median (oocysts),2.5 µM,7
same,Prevalence %,2.5 µM,72%
same,% inhibition (prevalence),"2.5 μM, single experiments",1%
same,Prevalence,"2.5 μM, single experiments",66 and 79 and 87
same,Median oocyst #,5 μM compound,6
same,Mean oocyst # excluding zeros (Range),[7],14 (0-70)
same,Prevalence,[8],87
same,Median (oocysts),5 µM,6
same,Prevalence %,5 µM,87%
same,Prevalence,"5 μM, single experiments",96 and 83 and 69
same,inhibition at 5 µM,[9],10%
same,inhibition at 5 µM,[10],26%
same,Median oocyst #,10 μM compound,3
same,Mean oocyst # excluding zeros (Range),[11],17 (0-93)
same,Prevalence,[12],57
same,inhibition at 10 µM,[13],10%
same,inhibition at 10 µM,"10 μM compound, oocyst number vs DMSO control, read-out: % inhibition (median)",50%
same,inhibition at 10 µM,[14],19%
same,Median (oocysts),10 µM,3
same,Median I %,10 µM,50%
same,Prevalence %,10 µM,57%
same,Prevalence I %,10 µM,19%
same,% inhibition (prevalence),"10 μM, single experiments",15%
same,inhibition at 10 µM,[15],30%
same,inhibition at 10 µM,[16],30%
same,oocyst formation inhibition,1 to 10 µM,did not inhibit oocyst formation
O=C(N/N=C/c1cc(Br)ccc1O)/C(=C/C=C/c1ccccc1)NC(=O)c1ccccc1 [CB-50],Median oocyst #,1 μM compound,8
same,Mean oocyst # excluding zeros (Range),[1],18 (0-95)
same,Prevalence,[2],81
same,Median (oocysts),1 µM,8
same,Prevalence %,1 µM,82%
same,Prevalence,"1 μM, single experiments",73 and 91 and 90
same,inhibition at 1 µM,[3],48%
same,inhibition at 1 µM,[4],48%
same,Median oocyst #,2.5 μM compound,9
same,Mean oocyst # excluding zeros (Range),[5],26 (0-103)
same,Prevalence,[6],74
same,Median (oocysts),2.5 µM,9
same,Prevalence %,2.5 µM,74%
same,Prevalence,"2.5 μM, single experiments",68 and 82 and 83
same,inhibition at 2.5 µM,[17],38%
same,inhibition at 2.5 µM,[18],48%
same,inhibition at 2.5 µM,"2.5 μM, single experiments, read-out: % inhibition (prevalence)",5%
same,Median oocyst #,5 μM compound,7
same,Mean oocyst # excluding zeros (Range),[7],15 (0-67)
same,Prevalence,[8],89
same,Median (oocysts),5 µM,7
same,Prevalence %,5 µM,89%
same,Prevalence,"5 μM, single experiments",87 and 90 and 92
same,inhibition at 5 µM,[9],19%
same,inhibition at 5 µM,[10],3%
same,Median oocyst #,10 μM compound,7
same,Mean oocyst # excluding zeros (Range),[11],18 (0-74)
same,Prevalence,[12],74
same,Median (oocysts),10 µM,7
same,Prevalence %,10 µM,74%
same,Prevalence,"10 μM, single experiments",65 and 88 and 89
same,inhibition at 10 µM,[15],52%
same,inhibition at 10 µM,"10 μM, single experiments, read-out: % inhibition (median)",61%
same,oocyst formation inhibition,1 to 10 µM,did not inhibit oocyst formation
COc1cccc(/C=N/NC(=O)c2nc(-c3ccccc3)cc(-c3ccccc3)n2)c1O [CB-41],Median oocyst #,1 μM compound,45
same,Mean oocyst # excluding zeros (Range),[1],53 (0-136)
same,Prevalence,[2],85
same,inhibition at 1 µM,"1 μM compound, vs DMSO control, read-out: % inhibition (prevalence)",14%
same,Median (oocysts),1 µM,45
same,Median I %,1 µM,18%
same,Prevalence %,1 µM,85%
same,Prevalence I %,1 µM,14%
same,Mean oocyst # excluding zeros (Range),"1 μM, single experiments",53 (0-136) and 77 (0-156)
same,Median oocyst #,"1 μM, single experiments",45 and 63
same,Median oocyst #,2.5 μM compound,44
same,Mean oocyst # excluding zeros (Range),[5],51 (0-123)
same,Prevalence,[6],83
same,inhibition at 2.5 µM,"2.5 μM compound, oocyst number vs DMSO control, read-out: % inhibition (mean)",2%
same,inhibition at 2.5 µM,"2.5 μM compound, oocyst number vs DMSO control, read-out: % inhibition (median)",19%
same,inhibition at 2.5 µM,"2.5 μM compound, vs DMSO control, read-out: % inhibition (prevalence)",17%
same,Median (oocysts),2.5 µM,44
same,Median I %,2.5 µM,19%
same,Prevalence %,2.5 µM,83%
same,Prevalence I %,2.5 µM,17%
same,% inhibition (mean),"2.5 μM, single experiments",9%
same,% inhibition (median),"2.5 μM, single experiments",30%
same,Mean oocyst # excluding zeros (Range),"2.5 μM, single experiments",47 (0-92) and 55 (0-123) and 64 (0-156)
same,Median oocyst #,"2.5 μM, single experiments",40 and 48
same,inhibition at 2.5 µM,[17],10%
same,inhibition at 2.5 µM,[18],26%
same,Median oocyst #,5 μM compound,32
same,Mean oocyst # excluding zeros (Range),[7],49 (0-108)
same,Prevalence,[8],71
same,inhibition at 5 µM,"5 μM compound, oocyst number vs DMSO control, read-out: % inhibition (mean)",6%
same,inhibition at 5 µM,"5 μM compound, oocyst number vs DMSO control, read-out: % inhibition (median)",41%
same,inhibition at 5 µM,"5 μM compound, vs DMSO control, read-out: % inhibition (prevalence)",28%
same,Median (oocysts),5 µM,32
same,Median I %,5 µM,41%
same,Prevalence %,5 µM,71%
same,Prevalence I %,5 µM,28%
same,Mean oocyst # excluding zeros (Range),"5 μM, single experiments",45 (0-108) and 52 (0-107) and 70 (0-144)
same,inhibition at 5 µM,[9],15%
same,Median oocyst #,10 μM compound,35
same,Mean oocyst # excluding zeros (Range),[11],44 (0-128)
same,Prevalence,[12],82
same,inhibition at 10 µM,[13],15%
same,inhibition at 10 µM,[14],18%
same,Median (oocysts),10 µM,35
same,Median I %,10 µM,36%
same,Prevalence %,10 µM,82%
same,Prevalence I %,10 µM,18%
same,% inhibition (prevalence),"10 μM, single experiments",45%
same,Mean oocyst # excluding zeros (Range),"10 μM, single experiments",37 (0-102) and 50 (0-128) and 59 (0-146)
same,Median oocyst #,"10 μM, single experiments",27 and 44
same,inhibition at 10 µM,[16],46%
same,median inhibition percentage,1 to 10 µM,below 50%
same,prevalence inhibition percentage,1 to 10 µM,below 50%
same,oocyst formation inhibition,1 to 10 µM,inhibited midgut oocyst formation in a dose-dependent manner
